Source: ChEMBL document CHEMBL4118102 (J Med Chem, 2018)

How the values were obtained:
[1] = tested on: Influenza B virus; assay: Antiviral activity against Influenza B virus (B/Perth/211/2001) infected in MDCK cells assessed as reduction in plaque formation measured after 3 days post infection by neutral red staining-based assay; format: functional, organism-based; details: 72 h
[2] = target: Neuraminidase (Influenza A virus) (UniProt A5Z252); details: Influenza A virus (A/chicken/Bangli/BBVD-563/2007(H5N1)); clade 2
[3] = tested on: Influenza A virus; assay: Antiviral activity against Influenza A virus (A/Victoria/503/06) infected in MDCK cells assessed as reduction in plaque formation measured after 3 days post infection by neutral red staining-based assay; format: functional, organism-based
[4] = tested on: Influenza A virus; assay: Antiviral activity against Influenza A virus (A/Fukui/45/04(H3N2)) infected in MDCK cells assessed as reduction in plaque formation measured after 3 days post infection by neutral red staining-based assay; format: functional, organism-based, Influenza A virus (A/Fukui/45/2004(H3N2)); details: 72 h
[5] = tested on: Influenza A virus; assay: Antiviral activity against Influenza A virus (A/Mississippi/03/01 (H1N1)) infected in MDCK cells assessed as reduction in plaque formation measured after 3 days post infection by neutral red staining-based assay; format: functional, organism-based; details: 72 h
[6] = target: Neuraminidase (Influenza A virus (A/Memphis/1/1971(H3N2))) (UniProt P03471); details: Influenza A virus (A/Fukui/45/2004(H3N2))
Sequence of Neuraminidase (Influenza A virus (A/Memphis/1/1971(H3N2))) (P03471 whole entry): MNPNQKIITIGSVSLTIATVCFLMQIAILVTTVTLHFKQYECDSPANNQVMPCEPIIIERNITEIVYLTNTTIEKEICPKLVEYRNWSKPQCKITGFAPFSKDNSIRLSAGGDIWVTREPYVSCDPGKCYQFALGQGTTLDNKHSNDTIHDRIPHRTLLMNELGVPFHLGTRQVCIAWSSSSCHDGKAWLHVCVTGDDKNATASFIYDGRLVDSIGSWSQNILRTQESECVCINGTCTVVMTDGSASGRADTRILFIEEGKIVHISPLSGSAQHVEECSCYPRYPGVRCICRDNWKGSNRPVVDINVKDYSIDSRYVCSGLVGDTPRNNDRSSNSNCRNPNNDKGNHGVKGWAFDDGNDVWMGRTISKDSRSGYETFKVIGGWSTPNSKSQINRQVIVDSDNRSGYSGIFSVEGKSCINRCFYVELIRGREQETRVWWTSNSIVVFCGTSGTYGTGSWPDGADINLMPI

[7] = target: Neuraminidase (Influenza B virus) (UniProt Q3S340); details: Influenza B virus (B/Perth/211/2001)
Sequence of Neuraminidase (Influenza B virus) (Q3S340 as listed by the source): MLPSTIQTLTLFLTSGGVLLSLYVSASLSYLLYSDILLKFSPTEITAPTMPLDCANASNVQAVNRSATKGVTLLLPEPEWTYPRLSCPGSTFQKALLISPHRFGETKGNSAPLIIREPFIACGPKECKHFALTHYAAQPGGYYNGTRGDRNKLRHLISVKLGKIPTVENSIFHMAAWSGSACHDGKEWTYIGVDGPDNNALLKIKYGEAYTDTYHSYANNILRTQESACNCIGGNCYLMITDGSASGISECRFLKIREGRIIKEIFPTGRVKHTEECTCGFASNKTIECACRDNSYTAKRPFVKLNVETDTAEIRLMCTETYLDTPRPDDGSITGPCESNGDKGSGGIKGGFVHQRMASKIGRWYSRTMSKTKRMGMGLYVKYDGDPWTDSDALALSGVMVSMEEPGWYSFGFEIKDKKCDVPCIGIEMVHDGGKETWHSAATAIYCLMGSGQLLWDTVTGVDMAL

[8] = target: Neuraminidase (Influenza A virus) (UniProt B4URF0); details: A/swine/Shepparton/6/2009 (H1N1)
[9] = target: Neuraminidase (Influenza A virus) (UniProt B4URF0); details: A/Mississippi/03/01 (H1N1)
[10] = target: Neuraminidase (Influenza A virus) (UniProt B4URF0); details: A/chicken/Vietnam/08/2004 (H5N1) clade 1
[11] = target: T1, Neuraminidase (Influenza B virus, UniProt Q3S340); design: species or system Influenza B virus (B/Perth/211/2001)
T1 sequence (Q3S340 whole entry): as the sequence (Q3S340 as listed by the source) above

[12] = target: T2, Neuraminidase (Influenza A virus, UniProt A5Z252); design: species or system Influenza A virus (A/chicken/Bangli/BBVD-563/2007(H5N1)), clade 2
[13] = target: T1, Neuraminidase; design: species or system Influenza B virus (B/Perth/211/2001); remark: listed apart in the source
[14] = target: T2, Neuraminidase; design: species or system Influenza A virus (A/chicken/Bangli/BBVD-563/2007(H5N1)), clade 2; remark: listed apart in the source
[15] = target: T3, Neuraminidase (Influenza A virus, UniProt B4URF0)
[16] = target: T3, Neuraminidase; remark: listed apart in the source
[17] = target: Neuraminidase (Influenza A virus (A/Memphis/1/1971(H3N2)), UniProt P03471); design: species or system Influenza A virus (A/Fukui/45/2004(H3N2))
Sequence of Neuraminidase (Influenza A virus (A/Memphis/1/1971(H3N2)), UniProt P03471) (P03471 whole entry): as the sequence (P03471 whole entry) above

[18] = target: T3, Neuraminidase; remark: listed apart in the source
[19] = target: Neuraminidase (Influenza A virus (A/Memphis/1/1971(H3N2)), UniProt P03471); design: species or system Influenza A virus (A/Fukui/45/2004(H3N2)); remark: listed apart in the source
[20] = target: T3, Neuraminidase; remark: listed apart in the source
[21] = target: T3, Neuraminidase; remark: listed apart in the source
[22] = target: T3, Neuraminidase; remark: listed apart in the source
[23] = target: T3, Neuraminidase; remark: listed apart in the source
[24] = target: T3, Neuraminidase; remark: listed apart in the source
[25] = Influenza A virus, A/Victoria/503/06, MDCK, 72 h

Row | SMILES | EC50 [1] | T1/2 [2] | EC50 [3, 25] | EC50 [4] | EC50 [5] | T1/2 [6] | T1/2 [7] | T1/2 [8] | T1/2 [9] | T1/2 [10] | IC50 [11] | IC50 [12] | IC50 [13] | IC50 [14] | IC50 [15] | IC50 [16] | IC50 [17] | IC50 [18] | IC50 [19] | IC50 [20] | further results
1 | CC(=O)N[C@H]1[C@H]([C@H](O)[C@H](O)CO)OC(C(=O)O)=C[C@@H]1NC(=N)N [ZANAMIVIR] | 10 nM | 72.8 min | 0.1 to 1 nM | 100 nM | ≤ 1 nM |  |  |  |  |  |  |  |  |  |  |  |  |  |  |  | 
2 | CC(=O)N[C@@H]1[C@@H](O)[C@@H](F)[C@](F)(C(=O)O)O[C@H]1[C@H](O)[C@@H](C)O | 10000 to 100000 nM | 16.9 min | ≥ 100000 nM |  | 10000 to 100000 nM | 29.7 min | > 240 min | 24.5 min | 37.5 min | 17.2 min | 9190 nM |  |  |  |  |  |  |  |  |  | 
3 | CC(=O)N[C@@H]1[C@@H](O)[C@@H](F)[C@](F)(C(=O)O)O[C@H]1[C@H](O)[C@H](O)CO | 1000 nM | 8.5 min | 100000 nM | 100000 nM | 1000 nM | 17.6 min | 43.6 min | 11.8 min | 24.8 min | 12 min | 414 nM | 863 nM | 65 nM | 889 nM |  |  |  |  |  |  | 
4 | CC(=O)N[C@@H]1[C@@H](O)[C@@H](F)[C@](F)(C(=O)O)O[C@H]1[C@H](O)CCO | 10000 to 100000 nM | 23.6 min | ≥ 100000 nM | ≥ 100000 nM | 10000 nM | 25.1 min | 186 min | 17.8 min | 30.4 min | 19.4 min | 7620 nM | 24500 nM |  | 28200 nM | 17000 nM | 22000 nM | 28700 nM | 2610 nM | 5010 nM | 21700 nM | IC50 [21]: 22400 nM; IC50 [22]: 25800 nM; IC50 [23]: 25800 nM; IC50 [24]: 8290 nM
5 | CC(=O)N[C@@H]1[C@@H](O)[C@@H](F)[C@](F)(C(=O)O)O[C@H]1C[C@H](O)CO | 1000 to 10000 nM | 12.3 min |  | 10000 to 100000 nM | 100 to 1000 nM | 13.9 min | 68.7 min | 15.8 min | 29.2 min | 15 min | 228 nM |  | 40 nM |  |  |  |  |  |  |  | EC50 ([3]; mdck): 10000 nM
6 | CC(=O)N[C@@H]1C[C@@H](F)[C@](F)(C(=O)O)O[C@H]1[C@H](O)[C@H](O)CO | 1000 nM | 10.6 min | 10000 nM | 100000 nM | 1000 nM | 13.4 min | 29.2 min | 11.6 min | 26.7 min | 13.7 min | 76 nM | 583 nM | 27 nM | 535 nM | 1400 nM | 490 nM | 313 nM | 69 nM | 318 nM | 985 nM | IC50 [21]: 490 nM; IC50 [22]: 474 nM; IC50 [23]: 428 nM; IC50 [24]: 48 nM
